Measured values published in the NIST ThermoML archive (doi:10.1021/acs.jced.9b00442).

Conditions: 100 kPa, Liquid; for electrical conductivity: Frequency=0.0006 MHz, Alternating current cell with electrodes; for viscosity: Concentric cylinders viscometry; for mass density: Vibrating tube method

CC[N+](CCO)(CCO)CCO.O=S(=O)([N-]S(=O)(=O)C(F)(F)F)C(F)(F)F
Conditions | electrical conductivity [S/m] | mass density [kg/m3] | viscosity [mPa·s]
283.15 K | 0.007 | – | –
288.15 K | 0.011 | 1538.5 | 2041.7
289.15 K | – | 1537.6 | –
290.15 K | – | 1536.7 | –
291.15 K | – | 1535.9 | –
292.15 K | – | 1535 | –
293.15 K | 0.018 | 1534.1 | 1275.4
294.15 K | – | 1533.2 | –
295.15 K | – | 1532.4 | –
296.15 K | – | 1531.5 | –
297.15 K | – | 1530.6 | –
298.15 K | 0.026 | 1529.7 | 840.6
299.16 K | – | 1528.9 | –
300.16 K | – | 1528 | –
301.15 K | – | 1527.1 | –
302.15 K | – | 1526.2 | –
303.15 K | 0.037 | 1525.4 | 569.4
304.15 K | – | 1524.5 | –
305.15 K | – | 1523.6 | –
306.15 K | – | 1522.7 | –
307.15 K | – | 1521.9 | –
308.15 K | 0.052 | 1521 | 397.8
309.15 K | – | 1520.1 | –
310.15 K | – | 1519.2 | –
311.15 K | – | 1518.4 | –
312.15 K | – | 1517.5 | –
313.15 K | 0.07 | 1516.6 | 280.3
314.15 K | – | 1515.7 | –
315.15 K | – | 1514.9 | –
316.15 K | – | 1514 | –
317.15 K | – | 1513.1 | –
318.15 K | 0.092 | 1512.2 | 210.5
319.15 K | – | 1511.3 | –
320.15 K | – | 1510.5 | –
321.15 K | – | 1509.6 | –
322.15 K | – | 1508.7 | –
323.15 K | 0.118 | 1507.8 | 158.6
324.15 K | – | 1507 | –
325.15 K | – | 1506.1 | –
326.15 K | – | 1505.2 | –
327.15 K | – | 1504.4 | –
328.15 K | – | 1503.5 | 122
329.15 K | – | 1502.6 | –
330.15 K | – | 1501.8 | –
331.15 K | – | 1500.9 | –
332.15 K | – | 1500 | –
333.15 K | – | 1499.2 | 94.7
334.15 K | – | 1498.3 | –
335.16 K | – | 1497.4 | –
336.15 K | – | 1496.6 | –
337.15 K | – | 1495.7 | –
338.15 K | – | 1494.9 | 76.1
339.15 K | – | 1494 | –
340.15 K | – | 1493.2 | –
341.15 K | – | 1492.3 | –
342.15 K | – | 1491.4 | –
343.15 K | – | 1490.6 | 61.6
344.15 K | – | 1489.7 | –
345.15 K | – | 1488.9 | –
346.15 K | – | 1488 | –
347.15 K | – | 1487.2 | –
348.15 K | – | 1486.3 | 50.6
349.15 K | – | 1485.5 | –
350.15 K | – | 1484.6 | –
351.15 K | – | 1483.8 | –
352.15 K | – | 1483 | –
353.15 K | – | 1482.1 | 41.9
354.15 K | – | 1481.3 | –
355.15 K | – | 1480.4 | –
356.15 K | – | 1479.6 | –
357.15 K | – | 1478.7 | –
358.15 K | – | 1477.9 | 35.3
359.15 K | – | 1477.1 | –
360.15 K | – | 1476.2 | –
361.15 K | – | 1475.4 | –
362.16 K | – | 1474.6 | –
363.15 K | – | 1473.7 | 30

CCCC[N+](CCO)(CCO)CCO.O=S(=O)([N-]S(=O)(=O)C(F)(F)F)C(F)(F)F
Conditions | electrical conductivity [S/m] | mass density [kg/m3] | viscosity [mPa·s]
283.15 K | 0.004 | – | –
288.15 K | 0.007 | – | 2752.6
289.15 K | – | 1464.4 | –
290.15 K | – | 1463.6 | –
291.15 K | – | 1462.7 | –
292.15 K | – | 1461.8 | –
293.15 K | 0.011 | 1461 | 1684.4
294.15 K | – | 1460.1 | –
295.15 K | – | 1459.2 | –
296.15 K | – | 1458.3 | –
297.15 K | – | 1457.5 | –
298.15 K | 0.016 | 1456.6 | 1072
299.16 K | – | 1455.7 | –
300.16 K | – | 1454.9 | –
301.15 K | – | 1454 | –
302.15 K | – | 1453.1 | –
303.15 K | 0.024 | 1452.3 | 708.7
304.15 K | – | 1451.4 | –
305.15 K | – | 1450.5 | –
306.15 K | – | 1449.7 | –
307.15 K | – | 1448.8 | –
308.15 K | 0.034 | 1447.9 | 484.5
309.15 K | – | 1447.1 | –
310.15 K | – | 1446.2 | –
311.15 K | – | 1445.4 | –
312.15 K | – | 1444.5 | –
313.15 K | 0.046 | 1443.6 | 340.8
314.15 K | – | 1442.8 | –
315.15 K | – | 1441.9 | –
316.15 K | – | 1441 | –
317.15 K | – | 1440.2 | –
318.15 K | 0.062 | 1439.3 | 245.9
319.15 K | – | 1438.4 | –
320.15 K | – | 1437.6 | –
321.15 K | – | 1436.7 | –
322.15 K | – | 1435.8 | –
323.15 K | 0.082 | 1435 | 182
324.15 K | – | 1434.1 | –
325.15 K | – | 1433.2 | –
326.15 K | – | 1432.4 | –
327.15 K | – | 1431.5 | –
328.15 K | – | 1430.6 | 137.7
329.15 K | – | 1429.8 | –
330.15 K | – | 1428.9 | –
331.15 K | – | 1428.1 | –
332.15 K | – | 1427.2 | –
333.15 K | – | 1426.3 | 106.6
334.15 K | – | 1425.5 | –
335.16 K | – | 1424.6 | –
336.15 K | – | 1423.8 | –
337.15 K | – | 1422.9 | –
338.15 K | – | 1422.1 | 83.5
339.15 K | – | 1421.2 | –
340.15 K | – | 1420.4 | –
341.15 K | – | 1419.5 | –
342.15 K | – | 1418.7 | –
343.15 K | – | 1417.8 | 66.7
344.15 K | – | 1417 | –
345.15 K | – | 1416.1 | –
346.15 K | – | 1415.3 | –
347.15 K | – | 1414.5 | –
348.15 K | – | 1413.6 | 54.1
349.15 K | – | 1412.8 | –
350.15 K | – | 1411.9 | –
351.15 K | – | 1411.1 | –
352.15 K | – | 1410.3 | –
353.15 K | – | 1409.4 | 44.7
354.15 K | – | 1408.6 | –
355.15 K | – | 1407.7 | –
356.15 K | – | 1406.9 | –
357.15 K | – | 1406.1 | –
358.15 K | – | 1405.2 | 37
359.15 K | – | 1404.4 | –
360.15 K | – | 1403.6 | –
361.15 K | – | 1402.8 | –
362.16 K | – | 1401.9 | –
363.15 K | – | 1401.1 | 31.1

C[N+](CCO)(CCO)CCO.O=S(=O)([N-]S(=O)(=O)C(F)(F)F)C(F)(F)F
Conditions | electrical conductivity [S/m] | mass density [kg/m3] | viscosity [mPa·s]
283.15 K | 0.01 | – | –
288.15 K | 0.017 | – | 1283.1
289.15 K | – | 1574.9 | –
290.15 K | – | 1574 | –
291.15 K | – | 1573.1 | –
292.15 K | – | 1572.2 | –
293.15 K | 0.025 | 1571.3 | 838.5
294.15 K | – | 1570.4 | –
295.15 K | – | 1569.5 | –
296.15 K | – | 1568.6 | –
297.15 K | – | 1567.7 | –
298.15 K | 0.036 | 1566.8 | 568.8
299.16 K | – | 1565.9 | –
300.16 K | – | 1565 | –
301.15 K | – | 1564.1 | –
302.15 K | – | 1563.2 | –
303.15 K | 0.05 | 1562.3 | 397.8
304.15 K | – | 1561.4 | –
305.15 K | – | 1560.5 | –
306.15 K | – | 1559.6 | –
307.15 K | – | 1558.7 | –
308.15 K | 0.068 | 1557.8 | 285.9
309.15 K | – | 1556.9 | –
310.15 K | – | 1556 | –
311.15 K | – | 1555.1 | –
312.15 K | – | 1554.2 | –
313.15 K | 0.09 | 1553.3 | 211.1
314.15 K | – | 1552.4 | –
315.15 K | – | 1551.5 | –
316.15 K | – | 1550.6 | –
317.15 K | – | 1549.7 | –
318.15 K | 0.117 | 1548.8 | 158.7
319.15 K | – | 1547.9 | –
320.15 K | – | 1547 | –
321.15 K | – | 1546.1 | –
322.15 K | – | 1545.2 | –
323.15 K | 0.149 | 1544.3 | 122
324.15 K | – | 1543.4 | –
325.15 K | – | 1542.5 | –
326.15 K | – | 1541.6 | –
327.15 K | – | 1540.7 | –
328.15 K | – | 1539.8 | 95.6
329.15 K | – | 1538.9 | –
330.15 K | – | 1538.1 | –
331.15 K | – | 1537.2 | –
332.15 K | – | 1536.3 | –
333.15 K | – | 1535.4 | 76.5
334.15 K | – | 1534.5 | –
335.16 K | – | 1533.6 | –
336.15 K | – | 1532.8 | –
337.15 K | – | 1531.9 | –
338.15 K | – | 1531 | 61.7
339.15 K | – | 1530.1 | –
340.15 K | – | 1529.2 | –
341.15 K | – | 1528.4 | –
342.15 K | – | 1527.5 | –
343.15 K | – | 1526.6 | 50.6
344.15 K | – | 1525.8 | –
345.15 K | – | 1524.9 | –
346.15 K | – | 1524 | –
347.15 K | – | 1523.1 | –
348.15 K | – | 1522.3 | 42.1
349.15 K | – | 1521.4 | –
350.15 K | – | 1520.5 | –
351.15 K | – | 1519.7 | –
352.15 K | – | 1518.8 | –
353.15 K | – | 1518 | 35.6
354.15 K | – | 1517.1 | –
355.15 K | – | 1516.2 | –
356.15 K | – | 1515.4 | –
357.15 K | – | 1514.5 | –
358.15 K | – | 1513.6 | 30.1
359.15 K | – | 1512.8 | –
360.15 K | – | 1511.9 | –
361.15 K | – | 1511.1 | –
362.16 K | – | 1510.2 | –
363.15 K | – | 1509.3 | 25.8
